This test concerns the target T1, Deoxyuridine 5'-triphosphate nucleotidohydrolase, mitochondrial (Homo sapiens, UniProt P33316).
T1 sequence (P33316 whole entry): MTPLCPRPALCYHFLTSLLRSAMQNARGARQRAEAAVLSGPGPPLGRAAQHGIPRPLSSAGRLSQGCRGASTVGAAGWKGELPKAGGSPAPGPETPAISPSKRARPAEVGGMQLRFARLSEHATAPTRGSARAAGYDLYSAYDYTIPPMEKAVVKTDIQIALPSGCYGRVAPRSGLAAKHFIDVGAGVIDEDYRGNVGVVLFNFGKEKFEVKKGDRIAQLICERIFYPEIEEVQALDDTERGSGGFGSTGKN
Kind of test: Inhibition Assay: The inhibitory activity of the compound against human dUTPase was determined by measuring the production of [5-3H]deoxyuridine monophosphate from [5-3H]deoxyuridine triphosphate.

A word on the IC50: it is the point on the concentration scale where inhibition reaches its midpoint. Low values mean greater potency, high ones weaker potency. Turning to `C[C@@H](NS(=O)(=O)CCCOCn1ccc(=O)[nH]c1=O)c1cccc(OCCF)c1`, the IC50 was determined as 410 nM.

The values are drawn from ChEMBL document CHEMBL3638618, “Uracil compound or salt thereof having human deoxyuridine triphosphatase inhibitory activity” (2013).
